Here are results for 25 compounds from patent US20170342025A1, “ANTIMICROBIAL COMPOUNDS, COMPOSITIONS AND METHODS” (Swansea University, priority 2014, published 2017).

The test system of test [1] is Escherichia coli (strain JM109). Nature of the test: MIC determination against Escherichia coli (Andrews protocol). Conditions: for MIC: Escherichia coli, read-out: MIC E. coli. Format: cell-based. How it is done:
(§1) Minimum Inhibitory Concentrations (MICs) for the compounds prepared were determined against Escherichia coli (strain JM109) and Staphylococcus aureus (strain 9518) using the protocols described by Andrews (J. Antimicrob. Chemother., 2001, 48, Suppl. S1, 5-16).

Test [2] concerns Staphylococcus aureus (strain 9518). Nature of the test: MIC determination against Staphylococcus aureus (Andrews protocol). Format: cell-based. Conditions: for MIC: Staphylococcus aureus, read-out: MIC S. aureus. How it is done: as §1
The mark [3] stands for this setting: Staphylococcus aureus strain 9518.

Where two headings read alike, the source gives them in different places. Some results are limits rather than exact numbers.

Usually MIC stands for the smallest concentration in the dilution series that meets the test's criterion for growth inhibition. With `N=C(N)NCc1cccc(OCc2cccc(C(F)(F)F)c2)c1.O=C(O)C(F)(F)F` [Compound 4i, 1-[(3-{[3-(trifluoromethyl)phenyl]methoxy}phenyl)methyl]guanidine 2,2,2-trifluoroacetate], the MIC in test [1] and in test [2] was 1 to 10 µg/mL each time.

Take `N=C(N)Nc1ccc(OCc2ccccc2)cc1.O=C(O)C(F)(F)F` [Compound 23a, 1-[4-(benzyloxy)phenyl]guanidine 2,2,2-trifluoroacetate]: the MIC in test [1] (Escherichia coli strain JM109) was greater than 100 µg/mL; in test [2] (setting [3]), 1 to 10 µg/mL.

Regarding `Cl.N=C(N)N/N=C/c1cccn1Cc1cccc(Cl)c1` [Compound 61e, (E)-Amino(2-((1-(3-chlorobenzyl)-1H-pyrrol-2-yl)methylene)hydrazinyl) methaniminium chloride], the MIC lay within 32 to 100 µg/mL in test [1] (Escherichia coli strain JM109) and 10 to 32 µg/mL in test [2] (setting [3]).

For the compound `N=C(N)Nc1ccc(OCc2ccc(Cl)cc2)cc1.O=C(O)C(F)(F)F` [Compound 23b, 1-{4-[(4-chlorophenyl)methoxy]phenyl}guanidine 2,2,2-trifluoroacetate], the MIC in test [1] (Escherichia coli strain JM109) and in test [2] (setting [3]) was greater than 100 µg/mL throughout.

In the case of `N=C(N)NCc1ccc(NS(=O)(=O)c2cccc(Cl)c2)cc1.O=C(O)C(F)(F)F` [Compound 55a, Amino((4-((3-chlorophenyl)sulfonamido)benzyl)amino)methaniminium 2,2,2-trifluoroacetate], the MIC in test [1] (Escherichia coli strain JM109) and in test [2] (setting [3]) was 32 to 100 µg/mL in each case.

Consider `N=C(N)N1CCN(c2ccc(Cl)cc2)CC1.O=C(O)C(F)(F)F.O=C(O)C(F)(F)F` [Compound 44a, 4-(4-chlorophenyl)piperazine-1-carboximidamide bis-(2,2,2-trifluoroacetate)], for which the MIC in test [1] (Escherichia coli strain JM109) and in test [2] (setting [3]) was greater than 100 µg/mL each time.

`COc1cccc(N2CCN(C(=N)N)CC2)c1.O=C(O)C(F)(F)F.O=C(O)C(F)(F)F` [Compound 44b, 4-(3-methoxyphenyl)piperazine-1-carboximidamide bis-(2,2,2-trifluoroacetate)]: the MIC in test [1] (Escherichia coli strain JM109) and in test [2] (setting [3]) was greater than 100 µg/mL throughout.

Turning to `N=C(N)NCc1ccc(OCc2ccc(Cl)cc2)cc1.O=C(O)C(F)(F)F` [Compound 19b, 1-(4-((4-chlorobenzyl)oxy)benzyl)guanidine 2,2,2-trifluoroacetate], the MIC is greater than 100 µg/mL in test [1] (Escherichia coli strain JM109) and 32 to 100 µg/mL in test [2] (setting [3]).

For `N=C(N)NCc1cccc(OCc2ccc(C(F)(F)F)cc2)c1.O=C(O)C(F)(F)F` [Compound 4h, 1-[(3-{[4-(trifluoromethyl)phenyl]methoxy}phenyl)methyl]guanidine 2,2,2-trifluoroacetate], the MIC in test [1] and in test [2] was 1 to 10 µg/mL in each case.

Consider `Cl.N=C(N)N/N=C/c1nccn1Cc1cccc(Cl)c1` [Compound 61a, (E)-amino(2-((1-(3-chlorobenzyl)-1H-imidazol-2-yl)methylene)hydrazinyl) methaniminium chloride], for which the MIC in test [1] (Escherichia coli strain JM109) and in test [2] (setting [3]) was 32 to 100 µg/mL each time.

In the case of `N=C(N)NCc1cccc(OCc2ccc(Br)cc2)c1.O=C(O)C(F)(F)F` [Compound 4j, 1-({3-[(4-bromophenyl)methoxy]phenyl}methyl)guanidine 2,2,2-trifluoroacetate], the MIC is 1 to 10 µg/mL in test [1] and 10 to 32 µg/mL in test [2].

As to `N=C(N)NCc1ccc(NS(=O)(=O)c2cccc(C(F)(F)F)c2)cc1.O=C(O)C(F)(F)F` [Compound 55d], the “MIC E. coli” value in test [1] (Escherichia coli strain JM109) is listed as “+ (32-100 μg/mL)”. In addition, the “MIC S. aureus” value in test [2] (setting [3]) is on record as “+ (32-100 μg/mL)”.

For the compound `N=C(N)NCc1cccc(OCc2ccc(Cl)cc2)c1.O=C(O)C(F)(F)F` [Compound 4b, 1-({3-[(4-chlorophenyl)methoxy]phenyl}methyl)guanidine 2,2,2-trifluoroacetate], the MIC in test [1] and in test [2] was 1 to 10 µg/mL throughout.

As for `N=C(N)NCc1cccc(OCc2ccc(Cl)c(Cl)c2)c1.O=C(O)C(F)(F)F` [Compound 4e, 1-({3-[(3,4-dichlorophenyl)methoxy]phenyl}methyl)guanidine 2,2,2-trifluoroacetate], the MIC was in the range of 10 to 32 µg/mL in test [1] and 1 to 10 µg/mL in test [2].

Consider `CC(=O)O.[H]/N=C(\N)NN=Cc1ccc(OC)c(OCc2ccc(Cl)c(Cl)c2)c1` [Compound 49g, (E)-2-(3-((3,4-dichlorobenzyl)oxy)-4-methoxybenzylidene)hydrazine-1-carboximidamide acetate], for which the MIC in test [1] (Escherichia coli strain JM109) was 1 to 10 µg/mL; in test [2] (setting [3]), 10 to 32 µg/mL.

As for `N=C(N)Nc1ccc(OCc2cccc(Cl)c2)cc1.O=C(O)C(F)(F)F` [Compound 23c, 1-{4-[(3-chlorophenyl)methoxy]phenyl}guanidine 2,2,2-trifluoroacetate], the MIC in test [1] (Escherichia coli strain JM109) is greater than 100 µg/mL; in test [2] (setting [3]), 10 to 32 µg/mL.

Regarding `Cl.N=C(N)N/N=C/c1cccn1Cc1cccc(C(F)(F)F)c1` [Compound 61g, (E)-Amino(2-((1-(3-(trifluoromethyl)benzyl)-1H-pyrrol-2-yl)methylene) hydrazinyl)methaniminium chloride], the MIC in test [1] (Escherichia coli strain JM109) and in test [2] (setting [3]) was 10 to 32 µg/mL each time.

On to `N=C(N)NCc1cccc(OCc2cccc(Cl)c2Cl)c1.O=C(O)C(F)(F)F` [Compound 4g, 1-({3-[(2,3-dichlorophenyl)methoxy]phenyl}methyl)guanidine 2,2,2-trifluoroacetate], for which the MIC in test [1] and in test [2] was 10 to 32 µg/mL each time.

Take `N=C(N)NCc1cccc(OCc2cccc(Cl)c2)c1.O=C(O)C(F)(F)F` [Compound 4c, 1-({3-[(3-chlorophenyl)methoxy]phenyl}methyl)guanidine 2,2,2-trifluoroacetate]: the MIC in test [1] and in test [2] was 10 to 32 µg/mL each time.

As for `N=C(N)NCc1ccc(OCc2ccccc2)cc1.O=C(O)C(F)(F)F` [Compound 19a, 1-(4-(benzyloxy)benzyl)guanidine 2,2,2-trifluoroacetate], the values for the MIC in test [1] (Escherichia coli strain JM109) and in test [2] (setting [3]) were greater than 100 µg/mL and 10 to 32 µg/mL, respectively.

As for `N=C(N)NCc1ccc(OCc2cccc(Cl)c2)cc1.O=C(O)C(F)(F)F` [Compound 19c, 1-(4-((3-chlorobenzyl)oxy)benzyl)guanidine 2,2,2-trifluoroacetate], the MIC in test [1] (Escherichia coli strain JM109) was greater than 100 µg/mL; in test [2] (setting [3]) it was 10 to 32 µg/mL.

Regarding `N=C(N)NCc1cccc(NS(=O)(=O)c2cccc(C(F)(F)F)c2)c1.O=C(O)C(F)(F)F` [Compound 55h, Amino((3-((3-(trifluoromethyl)phenyl)sulfonamido)benzyl)amino) methaniminium 2,2,2-trifluoroacetate], the MIC in test [1] (Escherichia coli strain JM109) and in test [2] (setting [3]) was 32 to 100 µg/mL each time.

For `Cl.N=C(N)N/N=C/c1cccc(OCc2cccc(Cl)c2)c1` [Compound 49e, (E)-Amino(2-(3-((3-chlorobenzyl)oxy)benzylidene)hydrazinyl)methaniminium chloride], the figures for the MIC in test [1] (Escherichia coli strain JM109) and in test [2] (setting [3]) were 1 to 10 µg/mL and 10 to 32 µg/mL, respectively.

For the compound `N=C(N)NCc1ccc(NS(=O)(=O)c2cccc(Cl)c2Cl)cc1.O=C(O)C(F)(F)F` [Compound 55c, Amino((4-((2,3-dichlorophenyl)sulfonamido)benzyl)amino)methaniminium 2,2,2-trifluoroacetate], the MIC in test [1] (Escherichia coli strain JM109) and in test [2] (setting [3]) was 32 to 100 µg/mL in each case.

For the compound `N=C(N)NCc1c(F)ccc(OCc2cccc(Cl)c2Cl)c1F.O=C(O)C(F)(F)F` [Compound 4o, 1-({3-[(2,3-dichlorophenyl)methoxy]-2,6-difluorophenyl}methyl)guanidine 2,2,2-trifluoroacetate], the MIC in test [1] and in test [2] was 1 to 10 µg/mL each time.
